Assay: xn = mol fraction of the nth substance listed
Conditions: 298.15 K, 101 kPa, Liquid, Taylor dispersion method

| Structure (SMILES) | binary diffusion coefficient (x1 = 0) | binary diffusion coefficient (x1 = 0.00119) | binary diffusion coefficient (x1 = 0.00475) | binary diffusion coefficient (x1 = 0.0095) | binary diffusion coefficient (x1 = 0.019) | binary diffusion coefficient (x1 = 0.038) |
| --- | --- | --- | --- | --- | --- | --- |
| C[N+](C)(C)CCCCCCCCCC[N+](C)(C)C.[Br-].[Br-] [decamethonium bromide] + O | 1.06e-09 m2/s | 9.9e-10 m2/s | 9.55e-10 m2/s | 9.04e-10 m2/s | 8.61e-10 m2/s | 8.43e-10 m2/s |
| C[N+](C)(C)CCCCCCCCCCCC[N+](C)(C)C.[Br-].[Br-] + O | 1.01e-09 m2/s | 9.72e-10 m2/s | 9.45e-10 m2/s | 9.11e-10 m2/s | 8.7e-10 m2/s | 8.05e-10 m2/s |

Reference: the NIST ThermoML archive (doi:10.1016/j.jct.2012.02.004)
